The values below are quoted from earlier work in patent US20110091549A1, “Modulating Drug Release Rate By Controlling The Kinetics Of The pH Transition In Hydrogels” (Confluent Surgical, Inc., priority 2009, published 2011).

Where two headings read alike, the source gives them in different places.

For data set [1] the following is noted: free base form compared with the salt form.
[2] abbreviates: drugs having a pKa of from about 7.4 to about 8.5.

Take `CCCN(CC)C(CC)C(=O)Nc1c(C)cccc1C` (stereo not drawn) [Etidocaine]: the pKa (as a rule, the negative logarithm of the acid dissociation constant) under setting [2] is 7.7.
With `COc1cccc2c1C(=O)c1c(O)c3c(c(O)c1C2=O)C[C@@](O)(C(=O)CO)C[C@@H]3O[C@H]1C[C@H](N)[C@H](O)[C@H](C)O1` [Doxorubicin], the pKa is reported as 8.2.
Turning to `CN1CCN(C(c2ccccc2)c2ccc(Cl)cc2)CC1` (stereo not drawn) [Chlorcyclizine], under setting [2], the pKa is given as 7.8.
In the case of `O=c1[nH]c(=O)n([C@H]2C[C@H](O)[C@@H](CO)O2)cc1Br` [Broxuridine], the pKa under setting [2] was 7.85.
As to `CCCCN1CCCCC1C(=O)Nc1c(C)cccc1C` (stereo not drawn) [Bupivacaine, bupivacaine], the aqueous solubility entry in data set [1] is reported as “lower aqueous solubility”. Besides, for the setting “transition of the salt form into free base form”, the pKa result is reported as “about 8.1”.
